Data from article PMC3723409 (Basic & clinical pharmacology & toxicology, 2009).
Like-named read-outs stand apart in the source and are kept apart here.

Experiments:
[1] = human, in vivo
[2] = in vivo interaction with buprenorphine; cited from earlier work
[3] = with lopinavir/ritonavir; cited from earlier work

Row | SMILES | Effect on pharmacokinetics / metabolism of buprenorphine [2] | further results
1 | CO[C@]12CC[C@@]3(C[C@@H]1[C@](C)(O)C(C)(C)C)[C@H]1Cc4ccc(O[C@@H]5O[C@H](C(=O)O)[C@@H](O)[C@H](O)[C@H]5O)c5c4[C@@]3(CCN1CC1CC1)[C@H]2O5 [B3G, buprenorphine-3-glucuronide] |  | Change in renal clearance [1]: No significant changes
2 | CC(C)Nc1cccnc1N1CCN(C(=O)c2cc3cc(NS(C)(=O)=O)ccc3[nH]2)CC1 [delavirdine] | inhibition of buprenorphine metabolism | 
3 | O=C1Nc2ccc(Cl)cc2[C@@](C#CC2CC2)(C(F)(F)F)O1 [efavirenz] | induction | 
4 | Cc1c(O)cccc1C(=O)N[C@@H](CSc1ccccc1)[C@H](O)CN1C[C@H]2CCCC[C@H]2C[C@H]1C(=O)NC(C)(C)C [nelfinavir] | neither nelfinavir nor the combination of lopinavir/ritonavir had any significant effect | 
5 | CC(C)c1nc(CN(C)C(=O)N[C@H](C(=O)N[C@@H](Cc2ccccc2)C[C@H](O)[C@H](Cc2ccccc2)NC(=O)OCc2cncs2)C(C)C)cs1 [ritonavir] | increased exposure to buprenorphine | 
6 | C[C@H](Cn1cnc2c(N)ncnc21)OCP(=O)(O)O [tenofovir] |  | Change in renal clearance [3]: decrease
